Experimental data published in patent US10052387B2, “Ceramide reversal of multi-drug resistance” (Memorial Sloan-Kettering Cancer Center, priority 2013, dated 2018).

B1: sphingomyelinase: exogenous bacterial sphingomyelinase used to generate endogenous ceramide (protein, UniProt P09599 28-333, looked up)
Sphingomyelinase C: DTSTDQNNTLKVMTHNVYMLSTNLYPNWGQSQRADLIGAADYIKNQDVVILNEVFDNSASDRLLGNLKKEYPNQTAVLGRSNGNEWDKTLGSYSSSTPEDGGVAIVSKWPIVEKIQYVFAKGCGPDNLSNKGFVYTKIKKNDRFVHVIGTHLQAEDSMCGKTSPASVRTNQLKEIQDFIKNKNIPNDEYVLFGGDMNVNKINAENNSDSEYASMFKTLHASIPSYTGHTATWDATTNSIAKYNFPDSPAEYLDYIIASKDHANPSFIENKVLQPKSPQWTVTSWLKKYTYDDYSDHYPVAATISMK

Experiments:
ADX cells [1] = assay: Daunorubicin trafficking into the nucleus of ADX cells (confocal microscopy); assay type: cell-based, Chinese hamster; details: for percent of ADX cells displaying nuclear daunorubicin: Mean ± 95% CI
Experimental: ADX cells were grown on 4-well slides, 20 uM daunorubicin was added for […], followed by various dose of liposomes containing C16:0 ceramide, sphingomyelin, C16:0 dihydroceramide or phosphatidylcholine for 1 h. Cells were examined under Leica SP-5 inverted confocal microscope. Y axis represents percent of cells with nuclear drug.
ADX cells were grown on 4-well slides. 3.5×10^4 ADX cells were incubated with 20 μM daunorubicin in DMEM HG:F-12 medium without serum. After 2 hours, at which time daunorubicin had reached steady state accumulation in cytoplasmic vesicles, liposomes containing long and very long chain ceramides were added to cells at 0, 1, 2, and 5 μM. After a 1 hour-incubation at 37° C., nuclear localization of daunorubicin was determined by confocal microscopy. Cells were examined under Leica SP-5 inverted confocal microscope. Y axis represents percent of cells with nuclear drug.

ADX cells [2] = assay: MTT cell survival assay in MDR ADX cells; assay type: cell-based, Chinese hamster; details: for enhanced cell kill: ADX MDR cells with daunorubicin; for chemosensitization of ADX cells by sphingomyelinase: exogenous sphingomyelinase, data not shown; for EC50: Cricetulus griseus
Experimental: (§1) A, time course of sphingomyelin changes in DC-3F and ADX cells after B. cereus SMase (0.05 U/mL) treatment. B, time course of ceramide generation. C, DC-3F and ADX cells were treated with increasing doses of B. cereus SMase (0-2 U/mL) and cell survival was measured by MTT (3-(4,5-dimethylthiazol-2-yl)-2,5-diphenyltetrazolium bromide) tetrazolium reduction (MTT) assay. D, Cells were seeded in 96-well plates (2×10^3 cells/well) in a 0.1 ml DME:F12 medium containing 5% FBS and cultured at 37° C. for 24 hours before addition of daunorubicin.
(§2) A, DC-3F and ADX cells were treated with increasing doses of daunorubicin. B, DC-3F and ADX cells were incubated with B. cereus SMase (0.0-0.05 U/ml) and treated with daunorubicin for 1 day. Cell survival was measured by MTT assay. Data are from one representative of three independent studies.

DC-3F cells = assay: MTT cell survival assay in parental DC-3F cells; assay type: cell-based, Chinese hamster
Experimental: as §1, §2

DC-3F tumor = assay: DC-3F flank tumor response to doxorubicin; assay type: in vivo, athymic nude mice; details: 8 mg/kg×3
Experimental: (§3) Tumors were created in the right flanks of athymic nude mice using 5×10^6 DC-3F cells or ADX cells and at tumor volumes of 100-150 mm^3 were treated with Doxorubicin 8 mg/kg i.v. weekly (arrows) for 3 weeks. Tumor volumes were measured daily according to the formula of Kim et al. (Cancer Res 1986: 46, 1120) for 3 months. Collated data in upper panels represent mean±SEM. Data in lower panels represent individual tumor patterns.

[3] = ×4 doses/25 g mouse; cited from earlier work
ADX tumor = assay: ADX MDR flank tumor response; details: 8 mg/kg×3
Experimental: as §3
5×10^6 ADX cells were implanted into athymic nude mice by s.c. injection. Treatment was started on day 21 when tumor was 100 mm^3. 8 mg/kg Dox (arrows) was injected i.v. every 7 days followed by 1 μmol/mouse liposomal C16:0 ceramide for a total of 3 treatments (total Dox=24 mg/kg, the MTD in mice). Left panel of A) represents individual tumor growth with Dox alone. Right panel of A) represents tumor response when treated with Dox+1 μmol/mouse liposomal ceramide. Panel B is mean tumor growth response of Dox alone and combined treatment.
ADX flank tumors (in athymic Nude-FoxN1 nu mice) were loaded to isotopic steady state for 1 h by systemic administration of Dox (20 mg/kg), and 1 μmol of C16:0 ceramide containing liposomes/mouse was injected i.v. Mice were sacrificed 1 h thereafter, and tumors snap frozen in OCT at −80° C.

[4] = Doxorubicin MTD studies in mice; details: mouse, in vivo, intravenous, 8 mg/kg
Source text: Methods: Liposome Delivery, MTD, PK: Liposomes and free doxorubicin are delivered intravenously and MTD and PK determined in accordance with known protocols.

Row | Molecule | percent of ADX cells displaying nuclear daunorubicin (ADX cells [1]; ceramide 1 μM) | percent of ADX cells displaying nuclear daunorubicin (ADX cells [1]; ceramide 2 μM) | percent of ADX cells displaying nuclear daunorubicin (ADX cells [1]; ceramide 5 μM) | also measured
1 | CCCCCCCCCCCCC/C=C/[C@@H](O)[C@H](CO)NC(C)=O [C2:0] | 7.5 ± 2.5% | 12.5 ± 3.3% | 7.0 ± 1.6% | –
2 | CCCCCCCCCCCCC/C=C/[C@@H](O)[C@H](CO)NC(=O)CCC [C4:0] | 8.0 ± 2.4% | 11.9 ± 2.7% | 13.0 ± 2.1% | –
3 | CCCCCCCCCCCCC/C=C/[C@@H](O)[C@H](CO)NC(=O)CCCCC [C6:0] | 8.8 ± 2.4% | 12.2 ± 2.0% | 16.2 ± 2.3% | –
4 | CCCCCCCCCCCCC/C=C/[C@@H](O)[C@H](CO)NC(=O)CCCCCCC [C8:0] | 11.4 ± 1.9% | 19.8 ± 2.1% | 35.5 ± 2.4% | –
5 | CCCCCCCCCCCCC/C=C/[C@@H](O)[C@H](CO)NC(=O)CCCCCCCCC [C10:0] | 6.8 ± 2.2% | 13.1 ± 2.8% | 20.0 ± 2.4% | –
6 | CCCCCCCCCCCCC/C=C/[C@@H](O)[C@H](CO)NC(=O)CCCCCCCCCCC [C12:0] | 8.9 ± 3.0% | 18.8 ± 3.2% | 22.3 ± 3.1% | –
7 | CCCCCCCCCCCCC/C=C/[C@@H](O)[C@H](CO)NC(=O)CCCCCCCCCCCCC [C14:0] | 7.4 ± 2.4% | 17.6 ± 3.4% | 23.4 ± 3.2% | –
8 | CCCCCCCCCCCCC/C=C/[C@@H](O)[C@H](CO)NC(=O)CCCCCCCCCCCCCCC [C16:0, N-palmitoyl (C16:0) ceramide] | 13.9 ± 1.7% | 24.3 ± 2.0% | 48.3 ± 2.7% | enhanced cell kill (ADX cells [2]): 25 fold; trafficking of daunorubicin into the nucleus (ADX cells [1]; ADX cells pre-loaded with 20 μM daunorubicin): nuclear transfer occurred only with C16:0 ceramide treatment
9 | N.N.[Cl][Pt][Cl] [cis-platinum] | – | – | – | chemosensitization of ADX cells by sphingomyelinase (ADX cells [2]): chemosensitization of ADX cells was also achieved
10 | COc1cccc2c1C(=O)c1c(O)c3c(c(O)c1C2=O)C[C@@](O)(C(C)=O)C[C@@H]3O[C@H]1C[C@H](N)[C@H](O)[C@H](C)O1 [daunorubicin] | – | – | – | EC50 (DC-3F cells; Cricetulus griseus, DC3F, parental DC-3F cells): 800 nM; EC50 (ADX cells [2]; ADX cells treated with increasing doses of exogenous sphingomyelinase): 4 µM; EC50 (ADX cells [2]; ADX cells, without sphingomyelinase): 92 µM
11 | COc1cccc2c1C(=O)c1c(O)c3c(c(O)c1C2=O)C[C@@](O)(C(=O)CO)C[C@@H]3O[C@H]1C[C@H](N)[C@H](O)[C@H](C)O1 [doxorubicin] | – | – | – | tumor response to doxorubicin (DC-3F tumor): sensitive; published MTD [3]: about 9 mg/kg; tumor response to doxorubicin (ADX tumor): totally resistant; MTD at 3 weeks [4]: 24 mg/kg
12 | CN[C@@H]1C[C@H]2O[C@@](C)([C@@H]1OC)n1c3ccccc3c3c4c(c5c6ccccc6n2c5c31)C(=O)NC4 [staurosporine] | – | – | – | chemosensitization of ADX cells by sphingomyelinase (ADX cells [2]): no sensitization was achieved
13 | CC[C@]1(O)C[C@H]2CN(CCc3c([nH]c4ccccc34)[C@@](C(=O)OC)(c3cc4c(cc3OC)N(C=O)[C@H]3[C@@](O)(C(=O)OC)[C@H](OC(C)=O)[C@]5(CC)C=CCN6CC[C@]43[C@@H]65)C2)C1 [vincristine] | – | – | – | chemosensitization of ADX cells by sphingomyelinase (ADX cells [2]): chemosensitization of ADX cells was also achieved
14 | B1 | – | – | – | effect of sphingomyelinase treatment on DC-3F cells (DC-3F cells; daunorubicin sensitivity): unaffected; enhanced cell kill (ADX cells [2]): 25 fold
